From patent US8067445B2, “N,N-disubstituted aminoalkylbiphenyl antagonists of prostaglandin D2 receptors” (Panmira Pharmaceuticals, LLC, priority 2008, dated 2011)

Assays:
human DP2 receptor = target: T1, human DP2 receptor (Homo sapiens, UniProt Q9Y5Y4); assay: DP2/CRTH2 radioligand binding assay ([3H]PGD2); settings: [3H]PGD2 binding, membranes of HEK293 cells expressing human DP2; read-out: hDP2
T1 construct: expressed in transfected cells
T1 sequence (Q9Y5Y4 1-395): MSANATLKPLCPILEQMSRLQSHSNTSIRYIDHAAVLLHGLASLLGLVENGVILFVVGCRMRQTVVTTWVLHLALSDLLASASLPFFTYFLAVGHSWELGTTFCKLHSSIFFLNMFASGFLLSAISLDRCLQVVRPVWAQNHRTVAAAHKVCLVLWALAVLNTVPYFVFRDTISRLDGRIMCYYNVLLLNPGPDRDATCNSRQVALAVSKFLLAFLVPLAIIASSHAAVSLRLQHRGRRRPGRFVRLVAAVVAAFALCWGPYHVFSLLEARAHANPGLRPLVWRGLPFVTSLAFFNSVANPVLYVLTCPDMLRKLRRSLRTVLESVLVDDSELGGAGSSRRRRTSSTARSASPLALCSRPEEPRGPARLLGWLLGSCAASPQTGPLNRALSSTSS
Procedure: The ability of a compound to bind to the human DP2 receptor is assessed via a radioligand binding assay using [^3H]PGD2. HEK293 cells stably expressing recombinant human DP2 are resuspended in 10 mM Hepes, 7.4 containing 1 mM DTT, lysed and centrifuged at 75,000×g to pellet the membranes. The membranes are resuspended in 10 mM Hepes, 7.4 containing 1 mM DTT and 10% glycerol to approximately 5 mg protein/ml. Membranes (2-10 μg protein/well) are incubated in 96-well plates with 1 nM [^3H]PGD2 and test compound in Assay Buffer (50 mM Hepes, 10 mM MnCl2, 1 mM EDTA, plus or minus 0.2% human serum albumin, pH 7.4) for 60 minutes at room temperature. The reactions are terminated by rapid filtration through Whatman GF/C glass fibre filter plates. The filter plates were pre-soaked in 0.33% polyethylenimine for 30 minutes at room temperature then washed in Wash Buffer (50 mM Hepes, 0.5 M NaCl pH 7.4) prior to harvesting. After harvesting, the filter plates are washed 3 times with 1 ml cold Wash Buffer then dried. Scintillant is then added to the plates and the radioactivity retained on the filters is determined on a Packard TopCount (Perkin Elmer). Specific binding is determined as total radioactive binding minus non-specific binding in the presence of 10 μM PGD2. IC50s were determined using GraphPad prism analysis of drug titration curves.

human DP1 receptor = target: T2, human DP1 receptor (Homo sapiens, UniProt Q13258); assay: DP1 radioligand binding assay ([3H]BWA868C, platelet membranes); settings: [3H]BWA868C binding, human platelet membranes; read-out: hDP1
T2 construct: tissue Biological Specialty Corporation; host or cells: human platelet membranes
T2 sequence (Q13258 1-359): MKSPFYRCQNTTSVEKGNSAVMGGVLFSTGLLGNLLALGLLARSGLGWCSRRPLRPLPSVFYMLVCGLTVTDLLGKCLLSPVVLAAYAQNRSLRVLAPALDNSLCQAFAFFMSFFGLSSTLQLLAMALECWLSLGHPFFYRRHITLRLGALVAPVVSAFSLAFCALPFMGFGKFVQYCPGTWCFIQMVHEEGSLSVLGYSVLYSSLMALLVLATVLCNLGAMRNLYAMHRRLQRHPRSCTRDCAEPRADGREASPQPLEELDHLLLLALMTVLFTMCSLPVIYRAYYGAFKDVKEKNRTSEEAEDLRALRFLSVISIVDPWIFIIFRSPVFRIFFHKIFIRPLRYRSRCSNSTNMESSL
Procedure: The ability of a compound to bind to the human DPI receptor was evaluated via a radioligand membrane binding assay using the DP1 selective synthetic ligand [^311]BWA868C. Packed human platelets (Biological Specialty Corporation), were resuspended in 6 volumes of Hepes/HBSS buffer (10 mM Hepes, 1 mM DTT in Hanks Balanced Salt Solution (HBSS)), lysed and centrifuged at 75,000×g to pellet the membranes. Membranes were resuspended in Hepes/HBSS buffer to approximately 12 mg protein/ml. Membranes (20 μg protein/well) are incubated in 96-well plates with 2 nM [^3H]BWA868C and test compound in Assay Buffer (50 mM Hepes, 10 mM MnCl2, 1 mM EDTA, plus or minus 0.2% human serum albumin, pH 7.4) for 60 minutes at room temperature. The reactions are terminated by rapid filtration through Whatman GF/C glass fibre filter plates. The filter plates were pre-soaked in 0.33% polyethylenimine for 30 minutes at room temperature then washed in Wash Buffer (50 mM Hepes, 0.5 M NaCl pH 7.4) prior to harvesting. After harvesting, the filter plates are washed 3 times with 1 ml cold Wash Buffer then dried. Scintillant is then added to the plates and the radioactivity retained on the filters is determined on a Packard TopCount (Perkin Elmer). Specific binding is determined as total radioactive binding minus non-specific binding in the presence of 10 μM BW A868C. IC50s were determined using GraphPad prism analysis of drug titration curves.

Row | IC50 (human DP2 receptor) | IC50 (human DP1 receptor) | SMILES
1 | > 30 µM | 1 to 30 µM | CCN(Cc1cc(C(F)(F)F)ccc1-c1cc(CC#N)ccc1OC)C(=O)OCc1ccccc1 [Compound 2-4, (5′-Cyanomethyl-2′-methoxy-4-trifluoromethyl-biphenyl-2-ylmethyl)-ethyl-carbamic acid benzyl ester]
2 | 0.3 to 1 µM | 1 to 30 µM | CCN(Cc1cc(C(F)(F)F)ccc1-c1cc(CC(=O)O)ccc1OC)C(=O)Cn1cncn1 [Compound 1-150, (2′-{[Ethyl-(2-[1,2,4]triazol-1-yl-acetyl)-amino]-methyl}-6-methoxy-4′-trifluoromethyl-biphenyl-3-yl)-acetic acid]
3 |  | 1 to 30 µM | O=C(O)CCn1c2c(c3ccccc31)C[C@H](NS(=O)(=O)c1ccc(F)cc1)CC2 [Ramatroban, reference compound]
4 |  | 1 to 30 µM | CCN(Cc1cc(F)ccc1-c1cc(CC(=O)O)ccc1OC)C(=O)OCc1ccccc1 [Compound 1-183, {2′-[(Benzyloxycarbonyl-ethyl-amino)-methyl]-4′-fluoro-6-methoxy-biphenyl-3-yl}-acetic acid]
5 |  | 1 to 30 µM | CCN(Cc1cc(C(F)(F)F)ccc1-c1cc(CC(=O)O)ccc1OC)C(=O)NCc1cccc(Cl)c1 [Compound 1-177, {2′-[3-(3-Chloro-benzyl)-1-ethyl-ureidomethyl]-6-methoxy-4′-trifluoromethyl-biphenyl-3-yl}-acetic acid]
6 |  | 1 to 30 µM | CCN(Cc1cc(C(F)(F)F)ccc1-c1cc(CC(=O)O)ccc1OC)C(=O)NCc1cc(Cl)cc(Cl)c1 [Compound 1-165, {2′-[3-(3,5-Dichloro-benzyl)-1-ethyl-ureidomethyl]-6-methoxy-4′-trifluoromethyl-biphenyl-3-yl}-acetic acid]
7 |  | 1 to 30 µM | CCN(Cc1cc(C(F)(F)F)ccc1-c1cc(CC(=O)O)ccc1OC)C(=O)N[C@H](C)c1ccc(Cl)cc1 [Compound 1-179, (2′-{3-[(R)-1-(4-Chloro-phenyl)-ethyl]-1-ethyl-ureidomethyl}-6-methoxy-4′-trifluoromethyl-biphenyl-3-yl)-acetic acid]
8 |  | 1 to 30 µM | CCN(Cc1cc(C(F)(F)F)ccc1-c1cc(CC(=O)O)ccc1OC)C(=O)N[C@@H](C)c1ccc(Cl)cc1 [Compound 1-180, (2′-{3-[(S)-1-(4-Chloro-phenyl)-ethyl]-1-ethyl-ureidomethyl}-6-methoxy-4′-trifluoromethyl-biphenyl-3-yl)-acetic acid]
9 |  | 1 to 30 µM | CCN(Cc1cc(NC(C)=O)ccc1-c1cc(CC(=O)O)ccc1OC)C(=O)OCc1ccccc1 [Compound 1-153, {4′-Acetylamino-2′-[(benzyloxycarbonyl-ethyl-amino)-methyl]-6-methoxy-biphenyl-3-yl}-acetic acid]

The next lines start with the molecule.

Row | SMILES | IC50 (human DP2 receptor) | IC50 (human DP1 receptor)
10 | CCN(Cc1cc(C(F)(F)F)ccc1-c1cc(CC(=O)O)ccc1OC)C(=O)NCc1ccccn1 [Compound 1-139, [2′-(1-Ethyl-3-pyridin-2-ylmethyl-ureidomethyl)-6-methoxy-4′-trifluoromethyl-biphenyl-3-yl]-acetic acid] | < 0.3 µM | 1 to 30 µM
11 | O=C(O)Cc1ccc(F)c(-c2ccc(C(F)(F)F)cc2CN(CC(F)(F)F)C(=O)OCc2ccccc2)c1 [Compound 1-49, (2′-{[Benzyloxycarbonyl-(2,2,2-trifluoro-ethyl)-amino]-methyl}-6-fluoro-4′-trifluoromethyl-biphenyl-3-yl)-acetic acid] | 1 to 30 µM | 1 to 30 µM
12 | CCN(Cc1cc(C(F)(F)F)ccc1-c1cc(CC(=O)O)ccc1OC)C(=O)COC [Compound 1-46, (2′-{[Ethyl-(2-methoxy-acetyl)-amino]-methyl}-6-methoxy-4′-trifluoromethyl-biphenyl-3-yl)-acetic acid] |  | 1 to 30 µM
13 | COc1ccc(CC(=O)O)cc1-c1ccc(C(F)(F)F)cc1CN(C(=O)OCc1ccccc1)C1CCC1 [Compound 1-34, {2′-[(Benzyloxycarbonyl-cyclobutyl-amino)-methyl]-6-methoxy-4′-trifluoromethyl-biphenyl-3-yl}-acetic acid] |  | 1 to 30 µM
14 | CCN(Cc1cc(C(F)(F)F)ccc1-c1cc(CC(=O)O)ccc1OC)C(=O)OCc1cc(Cl)cc(Cl)c1 [Compound 1-38, (2′-{[(3,5-Dichloro-benzyloxycarbonyl)-ethyl-amino]-methyl}-6-methoxy-4′-trifluoromethyl-biphenyl-3-yl)-acetic acid] |  | 1 to 30 µM
15 | COc1ccc(CC(=O)O)cc1-c1ccc(C(F)(F)F)cc1CN(C)C(=O)OCc1ccccc1 [Compound 1-27, {2′-[(Benzyloxycarbonyl-methyl-amino)-methyl]-6-methoxy-4′-trifluoromethyl-biphenyl-3-yl}-acetic acid] |  | 1 to 30 µM
16 | CCN(Cc1cc(C(F)(F)F)ccc1-c1cc(CC(=O)O)ccc1OC)C(=O)OCc1ccccc1 [Compound 1-28, {2′-[(Benzyloxycarbonyl-ethyl-amino)-methyl]-6-methoxy-4′-trifluoromethyl-biphenyl-3-yl}-acetic acid] |  | 1 to 30 µM
17 | CCN(Cc1ccccc1)C(=O)N(CC)Cc1cc(C(F)(F)F)ccc1-c1cc(CC(=O)O)ccc1OC [Compound 1-94, [2′-(3-Benzyl-1,3-diethyl-ureidomethyl)-6-methoxy-4′-trifluoromethyl-biphenyl-3-yl]-acetic acid] |  | 1 to 30 µM
18 | CCN(Cc1cc(C(F)(F)F)ccc1-c1cc(CC(=O)O)ccc1OC)C(=O)C1CC1 [Compound 1-33, {2′-[(Cyclopropanecarbonyl-ethyl-amino)-methyl]-6-methoxy-4′-trifluoromethyl-biphenyl-3-yl}-acetic acid] |  | 1 to 30 µM
19 | CC(=O)N(Cc1cc(C(F)(F)F)ccc1-c1cc(CC(=O)O)ccc1F)CC(F)(F)F [Compound 1-11, (2′-{[Acetyl-(2,2,2-trifluoro-ethyl)-amino]-methyl}-6-fluoro-4′-trifluoromethyl-biphenyl-3-yl)-acetic acid] |  | 1 to 30 µM
20 | COc1ccc(CC(=O)O)cc1-c1ccc(C(F)(F)F)cc1CN(C(C)=O)C1CC1 [Compound 1-12, {2′-[(Acetyl-cyclopropyl-amino)-methyl]-6-methoxy-4′-trifluoromethyl-biphenyl-3-yl}-acetic acid] |  | 1 to 30 µM
21 | COc1ccc(CC(=O)O)cc1-c1ccc(C(F)(F)F)cc1CN(C(C)=O)C1CCCC1 [Compound 1-31, {2′-[(Acetyl-cyclopentyl-amino)-methyl]-6-methoxy-4′-trifluoromethyl-biphenyl-3-yl}-acetic acid] |  | 1 to 30 µM
22 | CCN(Cc1cc(C(F)(F)F)ccc1-c1cc(CC(=O)O)ccc1OC)C(=O)OCc1ccc(Cl)cc1 [Compound 1-42, (2′-{[(4-Chloro-benzyloxycarbonyl)-ethyl-amino]-methyl}-6-methoxy-4′-trifluoromethyl-biphenyl-3-yl)-acetic acid] |  | 1 to 30 µM
23 | CCN(Cc1cc(C(F)(F)F)ccc1-c1cc(CC(=O)O)ccc1OC)C(=O)OCc1ccccc1Cl [Compound 1-39, (2′-{[(2-Chloro-benzyloxycarbonyl)-ethyl-amino]-methyl}-6-methoxy-4′-trifluoromethyl-biphenyl-3-yl)-acetic acid] |  | 1 to 30 µM
